Source: PubChem BioAssay AID493102 (Broad Institute, 2011)

system: SK-MEL-5 TRPM1-promoter luciferase reporter, 24 h; experiment: reducers of TRPM1 reporter luminescence, concentration series – cell-based, SK-MEL-5, cherry-picked, set 4, MITF inhibitor project, dose response (AID 493102);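 note: actives lower the luciferase signal so the potency reflects inhibition of reporter expression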

Row | SMILES | AC50 [µM]
1 | COc1ccc2c(C)nc(Nc3nc(-c4ccccc4)cc(=O)[nH]3)nc2c1 | 2.91
2 | O=C1c2cc([N+](=O)[O-])cc3cc([N+](=O)[O-])cc(c23)C(=O)N1c1ccccn1 | 7.92
3 | O=C(Nc1nc(-c2ccccn2)cs1)c1ccc(F)c(S(=O)(=O)N2CCOCC2)c1 | 5.7
4 | O=C1NC(=O)N(Cc2ccccc2)C(=O)/C1=C/C=C/c1ccco1 | 4.85
5 | COc1ccccc1OCC(=O)N/N=C/C=C/c1ccc([N+](=O)[O-])o1 | 7.39
6 | CC(=O)OCCNc1cc(Sc2nc3ccccc3[nH]2)c2nonc2c1[N+](=O)[O-] | 11.5
7 | O=C(Cn1ncc(Cl)c(Cl)c1=O)N1CCN(Cc2ccccc2)CC1 | 10.9
8 | C=CCSC(=S)NC1CCS(=O)(=O)C1 (stereo unspecified) | 20.7
9 | CC(=O)Nc1sc(C)c(C)c1C(=O)OCC(=O)N(CC(C)C)c1c(N)n(Cc2ccccc2)c(=O)[nH]c1=O | 5.29
10 | COc1ccccc1N(C(=O)CCl)c1cn(C(C)=O)c2ccccc12 | 8.82
11 | Cc1ccc(C(C)C)c(OCc2nn(CC(=O)c3ccc(OC(F)F)cc3)c3[n+]2CCCCC3)c1 | 9.17
12 | O=C(N/N=C/c1ccccc1Cl)c1n[nH]c2c1CCCC2 | 7.97
13 | Cc1ccc(C(=O)N/C(=C\c2ccc(-c3ccc(Br)cc3)o2)C(=O)NCCCN(C)C)cc1 | 6.84
14 | O=C(Cc1ccc2c(c1)OCO2)NN=Cc1ccc([N+](=O)[O-])o1 | 8.55
15 | O=C1CCC2S/C(=C/Nc3ccc(C(F)(F)F)cc3)C(=O)N12 (stereo unspecified) | 3.57
16 | CCN(CC)CCNC(=O)c1c(C)n(-c2ccccc2)c2cc(Br)c(OC)cc12 | 12.9
17 | COC(=O)c1ccc(Nc2cc(C)nc3ccc(C)cc23)cc1 | 6.85
18 | Cn1cc([N+](=O)[O-])c(C(=O)Nc2nc(-c3ccc(Cl)cc3)cs2)n1 | 10.5
19 | CC(C)c1ccc(/C=C2\SC(=S)N(CCC(=O)N3CCCCC3CCO)C2=O)cc1 (stereo unspecified) | 7.43
20 | Cc1ccc(-c2nc(C(=O)NCCCN(C)C)cc3c2[nH]c2ccccc23)cc1 | 11.2
21 | CCCCn1c(=N)n(CC(=O)c2ccc(Br)s2)c2ccccc21 | 7.45
22 | O=C(C[n+]1cccc2ccccc21)c1ccc([N+](=O)[O-])cc1 | 6.21
23 | O=C(N/N=C\c1cc(Br)ccc1O)c1ccc(S(=O)(=O)N2CCCCC2)cc1 | 1.78

Row | SMILES | AC50 [µM]
24 | CC1CCC(C(C)C)C(OC(=O)C[n+]2cc(-c3ccc(Cl)cc3)n3c2CCCCC3)C1 (stereo unspecified) | 6.97
25 | CCOc1cc(/C=C2/NC(=S)NC2=O)ccc1OCc1ccc([N+](=O)[O-])cc1 | 8.19
26 | CCCNC(=O)COC(=O)c1ccccc1C(=O)c1ccc(Cl)c([N+](=O)[O-])c1 | 8.34
27 | O=C(N/N=C/c1cccc2cccnc12)c1ccccc1O | 24.8
28 | COc1ccccc1NS(=O)(=O)c1cccc(C(=O)N/N=C/c2ccc([N+](=O)[O-])o2)c1 | 4.3
29 | COc1cc2c(c(OC)c1OC)-c1ccc(OC)c(=O)cc1C(NC(C)=O)CC2 (stereo unspecified) | 0.056
30 | O=C(/C=C/c1ccccc1)Nc1cccc(C(=O)O)c1 | 1.52
31 | CCN1CCN(c2ccc(S(=O)(=O)N3CCOCC3)cc2NC(=O)/C=C/c2ccc([N+](=O)[O-])cc2)CC1 | 8.13
32 | CCN1CCN(c2ccc(NC(=O)c3ccc([N+](=O)[O-])o3)cc2Cl)CC1 | 9.54
33 | N/C(=N\OC(=O)c1ccccc1)c1ccccn1 | 11.9
34 | O=C(NC(=S)NCc1ccccc1)c1ccccc1 | 22.1
35 | COc1ccc(-n2c(C)cc(C(=O)CCl)c2C)cc1 | 6.44
36 | Cc1cc(/C=C2\Sc3ccccc3N2C)cc(C)[n+]1CC1CCCO1 (stereo unspecified) | 1.82
37 | CCCCn1c(=O)[nH]c(=O)c2c1nc(Cn1ncc(Cl)c(Cl)c1=O)n2CCC | 8.12
38 | Cc1cc(C(=O)N/N=C/c2ccc([N+](=O)[O-])o2)c(C)o1 | 4.79
39 | Cc1cccc2sc(N(CCCN(C)C)C(=O)c3nc4ccccc4s3)nc12 | 10.9
40 | COc1cc(SC)ccc1C(=O)Nc1nc(C)cs1 | 4.81
41 | Oc1c(Cl)cc(Cl)cc1/C=N/Nc1ncc(Br)cn1 | 7.84
42 | CCN1CCN(c2ccc(S(=O)(=O)N3CCCCC3)cc2NC(=O)/C=C/c2ccc([N+](=O)[O-])cc2)CC1 | 7.51
43 | O=C(Cn1ncc(Cl)c(Cl)c1=O)N1CCc2ccccc21 | 6.1
44 | O=C(c1ccc([N+](=O)[O-])s1)N1CCCc2ccccc21 | 11.2
45 | CC(Oc1cccc(Br)c1)C(=O)NNC(=O)c1ccccn1 (stereo unspecified) | 7.18
46 | O=[N+]([O-])/C=C\c1ccc(N2CCOCC2)cc1 | 13.6

Row | SMILES | AC50 [µM]
47 | O=C(Nc1nc(-c2ccccn2)cs1)c1ccc([N+](=O)[O-])o1 | 10.8
48 | Cc1ccn2c(Nc3ccccc3)c(-c3ccccn3)nc2c1 | 9.31
49 | O=C(CCl)N(c1ccccc1)C1CCS(=O)(=O)C1 (stereo unspecified) | 9.35
50 | O=C(CCl)N(Cc1cc(=O)[nH]c2ccccc12)c1ccccc1 | 5.42
51 | Cc1ccc(C(=O)N/N=C\c2ccc([N+](=O)[O-])s2)cn1 | 2.95
52 | O=C(COC(=O)c1ccc(F)c([N+](=O)[O-])c1)NC(=O)NCc1ccccc1 | 13.6
53 | CN1CCN(C2=C(NS(=O)(=O)c3cccs3)C(=O)c3ccccc3C2=O)CC1 | 6.98
54 | O=C(Nc1cccc(Cl)c1)Nc1cc(S(=O)(=O)N2CCCCC2)ccc1Cl | 12
55 | COc1cccc(/C=N/Nc2ncnc3c2ncn3Cc2ccccc2)c1O | 4.6
56 | CC(C)(C)c1ccc(-c2cn(-c3ccc(Br)cc3)c3[n+]2CCCS3)cc1 | 3.2
57 | O=C(Cn1ncc(Cl)c(Cl)c1=O)c1ccc(Cl)cc1 | 8.81
58 | O=C(N/N=C/c1ccc([N+](=O)[O-])o1)c1sc2ccccc2c1Cl | 4.61
59 | Cc1[nH]c2ccccc2c1C(=O)CCl | 6.78
60 | CC(Oc1ccccc1)C(=O)Nc1nc(-c2ccccn2)cs1 (stereo unspecified) | 14.1
61 | CN1C(=O)/C(=C/c2cccn2-c2ccc3ccccc3c2)C(=O)NC1=S | 9.42
62 | C/C(=N\NC(=O)COc1ccccc1-c1ccccc1)c1ccccn1 | 4.58
63 | CCC(C)(C)c1ccc(OCCCC[n+]2ccccc2)c(C(C)(C)CC)c1 | 4.35
64 | O=C(COc1ccccc1)N/N=C/c1ccc([N+](=O)[O-])o1 | 21.5
65 | CC(/C=N/NC(=O)c1cc(-c2ccncc2)nc2ccccc12)=C\c1ccco1 | 2.4
66 | Cc1cc(C)c[n+](C2=C([O-])c3ccccc3C(=O)/C2=N\S(=O)(=O)c2cccs2)c1 | 2.95
67 | O=C(CNc1cccc2ccccc12)N/N=C/c1ccc([N+](=O)[O-])o1 | 5.04
68 | CC1=C/C(=N\NC(=S)Nc2cccnc2)CC(C)(C)C1 | 11
69 | CCn1c(C)cc(C(=O)CN2C(=O)c3ccccc3S2(=O)=O)c1C | 1.99

Row | SMILES | AC50 [µM]
70 | CC(=O)N(C1CC(C)C(C#N)(C#N)C1(C#N)C#N)N(C)C (stereo unspecified) | 9.24
71 | CCCOCc1ccc(O)c2ncccc12 | 15.5
72 | Cc1cccc(/C=C2/Sc3ccc(C(=O)NCCN4CCCC4)cc3NC2=O)c1 | 18.4
73 | Cn1c(/C=C/c2cccc([N+](=O)[O-])c2)c([N+](=O)[O-])c(=O)n(C)c1=O | 27.8
74 | CCN(CC)S(=O)(=O)c1ccc(NC(=O)c2cccnc2Cl)c(NC(=O)c2cccnc2Cl)c1 | 7.03
75 | O=C(CNc1ccc2ccccc2c1)N/N=C/c1ccc([N+](=O)[O-])o1 | 4.95
76 | C/C(=N\NC(=O)C1COc2ccccc2O1)c1ccccn1 (stereo unspecified) | 4.49
77 | O=C1c2ccccc2S(=O)(=O)N1Cc1nc2ccccc2s1 | 2.7
78 | O=C(CCl)Nc1cccc(-c2cnc3ccccc3n2)c1 | 4.02
79 | NNC(=O)c1cc2ccccc2cc1O | 24
80 | COc1ccc(/C=N/Nc2cc(C)nc(-n3nc(C)cc3C)n2)c(OC)c1 | 10.4
81 | CCOc1ccc(NC(=O)CCC(=O)N/N=C/c2ccc([N+](=O)[O-])s2)cc1 | 6.21
82 | COc1ccc(C(=O)Nc2ccc(C)cn2)c(OC)c1 | 3.7
83 | CCOC(=O)COc1ccc2ccccc2c1/C=C/[N+](=O)[O-] | 8.17
84 | CCN(CC)CCn1nc2c3c(cccc3c1=O)-c1ccccc1-2 | 5.92
85 | Cc1ccc(NC(=O)c2ccc([N+](=O)[O-])o2)cc1S(=O)(=O)N1CCOCC1 | 11.4
86 | Nc1ccc(-c2nc3ccc(C(=O)O)cc3s2)cc1 | 0.866
87 | Cc1cccc(NC2=C(NC(=O)c3ccccc3)C(=O)c3ccccc3C2=O)c1 | 9.99
88 | CCCCN(CC)CCCNC(=O)c1cc2c(=O)n(CC)c3ccccc3c2s1 | 21.6
89 | COc1cc(/C=N/NC(N)=O)c(Br)cc1OCC(=O)Nc1ccccc1C | 17.8
90 | CC1CCN(CC2C(=O)O[C@@H]3C[C@@]4(C)CCC[C@H](C)C4=C[C@H]23)CC(C)(C)C1 (stereo partly specified) | 16.1
91 | Cc1cc(Sc2ncnc(N)c2[N+](=O)[O-])ncn1 | 7.61
92 | Nc1nc2n[nH]nc2c(=O)[nH]1 | 0.875

Row | SMILES | AC50 [µM]
93 | O=C(N/N=C\c1cc(Cl)ccc1O)c1ccc(S(=O)(=O)N2CCCCC2)cc1 | 2.81
94 | O=C(COC(=O)CCN1C(=O)/C(=C\C=C\c2ccccc2)SC1=S)Nc1cc(F)ccc1F | 7.49
95 | COc1cc(NC(=O)COc2ccccc2[N+](=O)[O-])ccc1NC(=O)c1cccs1 | 10.1
96 | CC(=O)Nc1ccc(Nc2c3ccccc3nc3ccccc23)cc1 | 4.9
97 | COc1cc2c(cc1OC)C(c1ccccc1)N(C(=O)CCl)CC2 (stereo unspecified) | 5.36
98 | Cc1cccc(NC(=O)CNC(=O)Cn2ncc(Cl)c(Cl)c2=O)c1C | 13.4
99 | C(#Cc1ccccc1)C[N+]1(CC#Cc2cccc3ccccc23)CCCC1 | 6.21
100 | CCOc1ccc2nc(NC3=NC(c4ccc(OC)cc4)CC(=O)N3)nc(C)c2c1 (stereo unspecified) | 9.49
101 | CC1CCC/C=C/C(=O)c2c(O)cc(O)cc2CC(=O)O1 (stereo unspecified) | 5.79
102 | CCN1c2ccccc2NC2N=C(OC)C(c3ccccc3)C21 (stereo unspecified) | 7.52
103 | COc1ccc(C(=O)/C=C/C(=O)N(CC(=O)NC2CCCCC2)Cc2ccccc2)c(O)c1 | 5.24
104 | CC(=O)c1c(C)oc2c1C(=O)c1ccccc1C2=O | 6.68
105 | CC(C)N=C(NS(=O)(=O)c1ccccc1)C(Cl)(Cl)Cl | 6.76
106 | NC(=O)c1cc([N+](=O)[O-])ccc1NCc1ccc(N)cc1 | 1.41
107 | CCc1cc[n+](C2=C([O-])c3ccccc3C(=O)/C2=N\S(=O)(=O)c2cccs2)cc1 | 1.15
108 | O=C1/C(=N\S(=O)(=O)c2cccs2)C([n+]2ccccc2)=C([O-])c2ccccc21 | 1.07
109 | CC1=NNC(=O)/C1=C\c1cn(-c2ccccc2)nc1-c1ccc(F)cc1 | 6.52
110 | Cc1ccc(S(=O)(=O)CC(CN2CCCCC2)N2CCCCC2)cc1 (stereo unspecified) | 8.1
111 | Cc1ccc(NC(=O)c2ccc([N+](=O)[O-])s2)cc1S(=O)(=O)N1CCOCC1 | 3.78
